Measured values as given in patent publication US20240018470A1, “METHOD OF MANIPULATING PLURIPOTENCY IN CELLS” (YALE UNIVERSITY, priority 2022, published 2024).

Assays:
Assay type in all cases: in vivo, Xenopus tropicalis
Xenopus embryos [1] = assay: Gastrulation scoring (incomplete blastopore closure) in treated or kcnh6-depleted embryos; conditions: kcnh6 depletion, injected at one-cell stage
Method: All injections of Xenopus embryos were performed at the one-cell stage using a fine glass needle and Picospritzer system. A kcnh6 translation blocking (kcnh6 MO, 5′-[…]-3′, SEQ ID NO:1) and a scrambled morpholino oligonucleotide were obtained from Gene Tools LLC and injected at 10 ng to deplete kcnh6 or as a control, respectively. CRISPR sgRNAs for kcnh6 targeted either exon 3 or exon 4 based on the v7.1 gene model of the X. tropicalis genome (CRex3: 5′-[…]-3′, SEQ ID NO:2 and CRex4: 5′-[…]-3′, SEQ ID NO:3). CRISPR sgRNAs for cacna1c (5′-[…]-3′, SEQ ID NO:4) and cacna1g (5′-[…]-3′, SEQ ID NO:5) were designed from the v7.1 model of the Xenopus tropicalis genome. For F0 CRISPR knockdown, embryos were injected with 1.5 ng Cas9 Protein (PNA-Bio) and 400 pg of targeting sgRNA and raised to desired stages. […] Full length human KCNH6 (NM 030779.3; cloned in pCS107), GCaMP6 (subcloned in pCSDest) and mCherry cDNAs (Addgene #34935; in pCS2+), were used to generate capped mRNAs in vitro by first linearizing with appropriate restriction enzymes and then transcribing with the mMessage machine kit (Ambion). mRNAs were injected at 3 pg (human KCNH6), 150 pg (GCaMP6) and 150 pg (mCherry) per embryo. Embryos were raised at 21° C. to allow time for sufficient expression levels at blastula/gastrula stages.
(§1) Normal embryonic medium is 1/9× modified Ringer's (MR) containing 11 mM NaCl, 0.2 mM KCl, 0.2 mM CaCl2), 0.1 mM Mg2Cl and 0.55 mM HEPES. To allow Ergtoxin to penetrate the embryos, the present study manually removed the vitelline envelope of stage 8 embryos and incubated embryos in 1/9×MR containing 50 nM Ergtoxin (Alomone STE-450) until stage 12. Embryos were then transferred back into 1/9×MR lacking Ergtoxin to develop until stage 45 in order to score organ situs. Barium chloride was applied into the medium at 20 mM and embryos were thoroughly rinsed in 1/9×MR after each incubation period for further development in Ba2+-free medium. For extracellular K^+ manipulations, the KCl concentration in 1/9×MR was modified from 0.2 mM (normal) to 20 mM (high) or 0 mM (low). The ionophore valinomycin (ACROS) and L-type VGCC blocker Nifedipine (ACROS) were diluted in DMSO as stock solutions and applied to embryos in 1/9×MR at 2 nM and 10 μM respectively. Treatments performed during gastrulation were applied from stage 8 through stage 12, and embryos were then rinsed thoroughly and returned into 1/9×MR. For rapamycin, the present study created a standard stock solution of 50 mg/ml in DMSO. The stock solution was diluted 1:2500 in the appropriate embryonic media (final 20 μg/ml). Embryos were treated at stage 7 and then fixed at stage 11 for in situ hybridization.
(§2) In experiments where embryos were evaluated for phenotypes and scored (gastrulation, left-right patterning, in situ hybridizations) the present study carried out three to five biological replicates and Fisher's exact test to evaluate statistical significance. The animal cap experiment was performed twice with a total score of four to eight animal caps per experiment. For the calcium transient analyses, data was collected from three to five embryos in each experiment in three independent experiments, and statistical analyses on GCaMP/mCherry fluorescence intensity as well as Ca^2+ transient area were performed using student's t-test. For whole cell electrophysiological recordings, three to five embryos (two cells each) were examined for their membrane potential and statistical significance was tested by student's t-test. Graphs were designed using GraphPad Prism software. Models were created with BioRender.com.

Xenopus embryos [2] = assay: Organ situs (left-right patterning) scoring in stage 45 tadpoles; conditions: kcnh6 depletion, injected at one-cell stage
Method: Stage 45 Xenopus embryos were paralyzed with benzocaine or tricaine and scored with a light stereomicroscope. Cardiac looping was determined by position of the outflow tract; D-loop: rightward, L-loop: leftward; A-loop: midline. Normal intestinal looping was scored as counter-clockwise rotation of the gut, while abnormal intestinal looping was scored as completely inverse gut rotation (clockwise) or complete lack of looping (un-looped). While a completely inverted gut rotation is clearly an abnormality of LR patterning, an unlooped gut is less clear so the present study only considered an unlooped gut as abnormal situs when combined with abnormal placement (left-sided or midline) of the gall bladder. To quantify total abnormal organ situs, each tadpole was counted only once, regardless of whether multiple organs were affected.
as §1, §2

Xenopus embryos [3] = assay: Whole mount in situ hybridization for germ layer and pluripotency markers
Description: In order to generate a full-length antisense probe for X. tropicalis kcnh6, kcnh6 cDNA was cloned from stage 45 tadpole whole mRNA using primers […] ID NO:10) and […] ID NO:11) (XM_012952904.1). It was noted that kcnh6 had been misannotated as kcnh2 in the v7.1 model of the X. tropicalis genome (The present study used NCBI Annotation XP_012808358.2 to identify KCNH6). […] GRPs were dissected post fixation and prior to dehydration to detect dandy. To detect putative gene expression in the prospective endoderm (mixer, vegT, kcnh6) gastrula stage embryos were bisected to facilitate better probe access. Briefly, whole mount in situ hybridization of digoxigenin-labeled antisense probes was performed overnight, the labelled embryos were then washed, incubated with anti-digoxigenin-AP Fab fragments (Roche 11093274910), and signal was detected using BM-purple (Roche 11442074001). Normal embryonic medium is 1/9× modified Ringer's (MR) containing 11 mM NaCl, 0.2 mM KCl, 0.2 mM CaCl2), 0.1 mM Mg2Cl and 0.55 mM HEPES. […] For extracellular K^+ manipulations, the KCl concentration in 1/9×MR was modified from 0.2 mM (normal) to 20 mM (high) or 0 mM (low). […] For rapamycin, the present study created a standard stock solution of 50 mg/ml in DMSO. The stock solution was diluted 1:2500 in the appropriate embryonic media (final 20 μg/ml). […] In experiments where embryos were evaluated for phenotypes and scored (gastrulation, left-right patterning, in situ hybridizations) the present study carried out three to five biological replicates and Fisher's exact test to evaluate statistical significance. The animal cap experiment was performed twice with a total score of four to eight animal caps per experiment. […] For whole cell electrophysiological recordings, three to five embryos (two cells each) were examined for their membrane potential and statistical significance was tested by student's t-test. Graphs were designed using GraphPad Prism software. Models were created with BioRender.com.

kcnh6 MO: kcnh6 translation blocking morpholino oligonucleotide, 5′-GGTCCTCGAAGTTTAGGATAAACAT-3′, SEQ ID NO:1 (all phosphorodiamidate morpholino (PMO))
inability to complete gastrulation (Xenopus embryos [1]): 31±3% | abnormal organ situs (Xenopus embryos [2]): 91±7% | embryos with myf5 lost (Xenopus embryos [3]; kcnh6 depleted embryos treated only with DMSO): 35±5% | embryos with absent ectodermin (Xenopus embryos [3]; kcnh6 depleted embryos treated with DMSO): 51±6%
